# Read-outs that look alike come from different tables or passages of the source.
# Assays:
# physchem = conditions: 25 °C, water, thermodynamic from solid
# Description: Glass vials containing water and excess amount of carvedilol salts were shaken by a mechanical shaker at ambient conditions. Aliquots were taken out at various time-point, filtered through 0.45 μm Acrodisc GHP filter. The pH of the filtered solutions was measured and suitable dilution was performed prior to UV-Vis analysis of carvedilol concentration.
# [1] = cited from earlier work
structure (smiles),measurement,setting,value
COc1ccccc1OCCNCC(O)COc1cccc2[nH]c3ccccc3c12 (racemic) [Carvedilol Free Base],solubility at 1 h,physchem,0.0098 mg/mL
same,solubility at 24 h,physchem,0.0116 mg/mL
same,solubility,[1]; above pH 9.0,< 0.001 mg/mL
same,saturation solubility,"[1]; pH 5, room temperature",~0.1 mg/mL
same,saturation solubility,"[1]; pH 7, room temperature",~0.023 mg/mL

# Reference: patent US20080096951A1 (SB Pharmo Puerto Rico Inc., priority 2002, published 2008)
